Earlier results, collected in US20200268770A1, “PHARMACEUTICAL COMPOSITION USED FOR TREATING METABOLIC SYNDROME DISORDERS, INFECTIOUS DISEASES, AND COMPLICATIONS THEREOF” (priority 2017, published 2020).
Where two headings read alike, the source gives them in different places.

Columns and labels:
[1] = test system: C57BL/6 mice fed with high fat foods
3T3-L1 cells = 3T3-L1 cells stimulated by differentiation inducers
[2] = pre-treatment, C57BL/6 mice fed with high fat foods

SMILES	fasting blood glucose levels [1, 2]	hepatic lipid accumulation [1, 2]	serum triglycerides (TG) [1, 2]	size of white and brown adipocytes [1, 2]	fasting blood glucose levels ([1]; therapeutic, obese mice)	glucose tolerance ([1]; therapeutic, obese mice)	high-density lipoprotein cholesterol (HDL-c) ([1]; therapeutic, obese mice)	low-density lipoprotein cholesterol (LDL-c) ([1]; therapeutic, obese mice)	serum TG ([1]; therapeutic, obese mice)	TG synthesis (3T3-L1 cells)	lipid droplet accumulation (3T3-L1 cells)	glycated hemoglobin (after 21 days)	nitric oxide (after 21 days)	progression of diabetes (after 21 days)	serum glucose (after 21 days)	serum insulin levels (after 21 days)	antioxidant levels (in vivo)	content of thiobarbituric acid-reactive substances (in vivo)
C=C(C)[C@H]1CC=C(C)CC1 [d-limonene]	lowered	prevented	lowered	decreased	reduced	reduced	increased	reduced	reduced	–	–	–	–	–	–	–	–	–
C=C(C)[C@@H]1CC[C@]2(C)CC[C@]3(C)[C@H](CC[C@@H]4[C@@]5(C)CC[C@H](O)C(C)(C)[C@@H]5CC[C@]43C)[C@@H]12 [lupeol]	–	–	–	–	–	–	–	–	–	strongly blocked	strongly blocked	decrease	decrease	suppressed	decrease	concomitant increase	increased	decrease
